This is an account of results in patent US3966718A, “7-β-Acylamino-ceph-3-ems and salts and esters therefor” (Beecham Group Limited, priority 1973, dated 1976).

Format in all cases: cell-based
Assay [1] has as its system Shigella sonnei. In words: MIC on nutrient agar. Conditions: read-out: minimum inhibitory concentration (MIC).
Assay [2] deals with Klebsiella aerogenes A. As to the kind of experiment: MIC on nutrient agar. Conditions: read-out: minimum inhibitory concentration (MIC).
Assay [3] concerns Staph. aureus Russell. In words: MIC on (nutrient) agar. Conditions: Staphylococcus aureus, read-out: minimum inhibitory concentration (MIC).
The subject of assay [4] is B. subtilis. As to the kind of experiment: MIC on (nutrient) agar. Conditions: Bacillus subtilis, read-out: minimum inhibitory concentration (MIC).
Assay [5] relates to Strep. pneumoniae CN33. As to the kind of experiment: MIC on (nutrient) agar. The following applies: Streptococcus pneumoniae, read-out: minimum inhibitory concentration (MIC).
Assay [6] relates to E. coli NCTC 10418. As to the kind of experiment: MIC on nutrient agar. Conditions: Escherichia coli, NCTC10418; E. coli NCTC 10418, nutrient agar; read-out: minimum inhibitory concentration (MIC).
Assay [7] concerns Salmonella typhi. As to the kind of experiment: MIC on nutrient agar. Conditions: Salmonella enterica, read-out: minimum inhibitory concentration (MIC).
Assay [8] deals with β-Haemolytic Strep. CN10. As to the kind of experiment: MIC on (nutrient) agar. The following applies: read-out: minimum inhibitory concentration (MIC).
In assay [9] the test system is Proteus mirabilis C977. In words: MIC on nutrient agar. Conditions: Proteus mirabilis C977, nutrient agar; read-out: minimum inhibitory concentration (MIC).
Assay [10] has as its system Staph. aureus Oxford. In words: MIC on (nutrient) agar. Conditions: Staphylococcus aureus, read-out: minimum inhibitory concentration (MIC).
Where [11] appears, read: Klebsiella aerogenes A, nutrient agar.

Values after ≈ are worked out from the molar mass of the structure shown. Counter-ions that a name gives are not always drawn. Like-named read-outs stand apart in the source and are kept apart here. A value given as a limit tells only on which side of the number the result lay.

In the case of `C[n+]1cccc(CC2=C(C(=O)O)N3C(=O)[C@@H](NC(=O)[C@H](N)c4ccccc4)[C@H]3SC2)c1` [Example 12, 7β(Dα-aminophenylacetamido)-3(3-pyridylmethyl)-3-cephem-4-carboxylic acid metho-trifluoroacetate trifluoroacetic acid salt], the MIC in assay [1] came to 50 µg/mL; in assay [2] (setting [11]), 50 µg/mL; in assay [3] (Staph. aureus Russell, agar), 12.5 µg/mL; in [4] (B. subtilis, agar), 0.5 µg/mL; in [5] it was 0.25 µg/mL; in [6], 50 µg/mL. The MIC in assay [7] worked out at 50 µg/mL; in [8] (β-Haemolytic Strep. CN10, agar), 0.05 µg/mL; in assay [9] it was 125 µg/mL; in [10], 0.25 µg/mL.
As for `N=C(N)N[C@@H](C(=O)N[C@@H]1C(=O)N2C(C(=O)O)=C(Cc3cccnc3)CS[C@H]12)c1ccccc1` [Example 11, 7β(Dα-guanidinophenylacetamido)-3(3-pyridylmethyl)-3-cephem-4-carboxylic acid di-trifluoroacetic acid salt], the MIC in assay [1] was over 100 µg/mL; in assay [2] (setting [11]) it was over 100 µg/mL; in assay [3] (Staph. aureus Russell, agar), 2.5 µg/mL; in assay [4] (B. subtilis, agar), 2.5 µg/mL; in [5], 0.1 µg/mL; in assay [6], over 100 µg/mL. Also, the MIC in assay [7] is over 100 µg/mL; in assay [8] (β-Haemolytic Strep. CN10, agar), 0.1 µg/mL; in assay [9], over 100 µg/mL; in assay [10], 0.5 µg/mL.
As for `C[n+]1cccc(CC2=C(C(=O)O)N3C(=O)[C@@H](NC(=O)[C@H](O)c4ccccc4)[C@H]3SC2)c1` [Example 5, 7β(D-α-hydroxyphenylacetamide)-3(3-pyridylmethyl)-3-cephem-4-carboxylic acid metho-trifluoroacetate], the MIC was 50 µg/mL in assay [1]; 50 µg/mL in [2] (setting [11]); 5 µg/mL in assay [3] (Staph. aureus Russell, agar); 0.25 µg/mL in assay [4] (B. subtilis, agar); 0.12 µg/mL in [5]; 50 µg/mL in assay [6]. For the same compound, the MIC in assay [7] is 50 µg/mL; in [8] (β-Haemolytic Strep. CN10, agar), 0.02 µg/mL; in assay [9] it was 125 µg/mL; in assay [10] it was 0.12 µg/mL.
As for `O=C(Cc1cccs1)N[C@@H]1C(=O)N2C(C(=O)O)=C(Cc3cccnc3)CS[C@H]12` [Example 1, 3-(3-pyridylmethyl)-7β-(2-thienylacetamido)-3-cephem-4-carboxylic acid trifluoroacetate salt], the MIC in assay [3] (Staph. aureus Russell, agar) was determined as 10 µg/mL; in assay [4] (B. subtilis, agar), 0.25 µg/mL; in assay [5], 0.1 µg/mL; in assay [8] (β-Haemolytic Strep. CN10, agar) it was 0.1 µg/mL; in [10], 0.05 µg/mL.
For `O=C(O)C1=C(Cc2cccnc2)CS[C@@H]2[C@H](NC(=O)[C@H](O)c3ccccc3)C(=O)N12` [Example 3, 7β(D-α-hydroxyphenylacetamido)-3(3-pyridylmethyl)-3-cephem-4-carboxylic acid trifluoroacetate salt], the MIC came out at 2.5 µg/mL in [1]; 2.5 µg/mL in assay [2] (setting [11]); 12.5 µg/mL in [3] (Staph. aureus Russell, agar); 0.12 µg/mL in [4] (B. subtilis, agar); 0.5 µg/mL in [5]; 2.5 µg/mL in [6]. Further, the MIC in assay [7] came out at 2.5 µg/mL; in assay [8] (β-Haemolytic Strep. CN10, agar), 0.25 µg/mL; in assay [9] it was 5 µg/mL; in assay [10], 0.25 µg/mL.
`CCSCC(=O)N[C@@H]1C(=O)N2C(C(=O)O)=C(Cc3cccnc3)CS[C@H]12` [Example 10, 7β-ethylthioacetamido-3(3-pyridylmethyl)-3-cephem-4-carboxylic acid trifluoroacetic acid salt]: the MIC came to 50 µg/mL in assay [1]; 50 µg/mL in assay [2] (setting [11]); 1.25 µg/mL in assay [3] (Staph. aureus Russell, agar); 0.5 µg/mL in assay [4] (B. subtilis, agar); 0.25 µg/mL in assay [5]; 50 µg/mL in assay [6]. The MIC in assay [7] was 50 µg/mL; in [8] (β-Haemolytic Strep. CN10, agar) it was 0.12 µg/mL; in assay [9] it was 25 µg/mL; in [10], 0.05 µg/mL.
For the compound `N[C@@H](C(=O)N[C@@H]1C(=O)N2C(C(=O)O)=C(Cc3cccnc3)CS[C@H]12)c1ccc(O)cc1` [Example 13, 7-(2-Amino-2-p-hydroxyphenylacetamido)-4-carboxy-3-(3-pyridylmethyl) ceph-3-em bis-trifluoroacetic acid salt], the MIC in assay [1] was found to be 5 µg/mL; in assay [2] (Klebsiella aerogenes), 1.25 µg/mL; in assay [3] (Staph. aureus Russell, agar), 2.5 µg/mL; in [4] (B. subtilis, agar), 0.25 µg/mL; in assay [5] it was 0.12 µg/mL; in assay [6], 5 µg/mL. The MIC turned out to be 1.25 µg/mL in assay [7]; 0.12 µg/mL in assay [8] (β-Haemolytic Strep. CN10, agar); 5 µg/mL in assay [9]; 0.25 µg/mL in assay [10].
Regarding `N[C@@H](C(=O)N[C@@H]1C(=O)N2C(C(=O)O)=C(Cc3cccnc3)CS[C@H]12)c1ccccc1` [Example 4, 7β(D-α-aminophenylacetamido)-3(3-pyridylmethyl)-3-cephem-4-carboxylic acid di-trifluoroacetate salt], the MIC in assay [1] was 2.5 µg/mL; in assay [2] (setting [11]) it was 2.5 µg/mL; in assay [3] (Staph. aureus Russell, agar), 2.5 µg/mL; in [4] (B. subtilis, agar), 0.25 µg/mL; in assay [5], 0.5 µg/mL; in assay [6] it was 2.5 µg/mL. In addition, the MIC came out at 1.25 µg/mL in [7]; 0.25 µg/mL in assay [8] (β-Haemolytic Strep. CN10, agar); 5 µg/mL in assay [9]; 0.25 µg/mL in assay [10].
Take `O=C(O)C(F)(F)F.O=C(O)C1=C(Cc2cccnc2)CS[C@@H]2[C@H](NC(=O)C(C(=O)Oc3ccccc3)c3ccccc3)C(=O)N12` (stereo partly drawn) [Example 6, 7β(α-phenoxycarbonylphenylacetamido)-3(3-pyridylmethyl)-3-cephem-4-carboxylic acid trifluoroacetate]: the MIC stood at 12.5 µg/mL in assay [1]; 25 µg/mL in [3] (Staph. aureus Russell, agar); 12.5 µg/mL in [4]; 50 µg/mL in assay [6]; 125 µg/mL in [7]; 12.5 µg/mL in [8]. In addition, the MIC in assay [9] was determined as 25 µg/mL; in [10] it was 5 µg/mL.
For the compound `O=C(O)CSCC(=O)N[C@@H]1C(=O)N2C(C(=O)O)=C(Cc3cccnc3)CS[C@H]12` [Example 14, 4-Carboxy-7-carboxymethylthioacetamido-3-(3-pyridylmethyl)ceph-3-em trifluoroacetic acid salt], the MIC worked out at 50 µg/mL in assay [1]; 25 µg/mL in [2] (setting [11]); 12.5 µg/mL in [3] (Staph. aureus Russell, agar); 25 µg/mL in assay [4] (B. subtilis, agar); 12.5 µg/mL in assay [5]; 50 µg/mL in [6]. Also, the MIC in assay [7] was 50 µg/mL; in assay [8] (β-Haemolytic Strep. CN10, agar) it was 5 µg/mL; in assay [9], 50 µg/mL; in assay [10], 1.25 µg/mL.
Turning to `O=C(O)C1=C(Cc2cccnc2)CS[C@@H]2[C@H](NC(=O)[C@H](NC(=O)N3CCNC3=O)c3ccccc3)C(=O)N12` [Example 8, 7β-[D-2-(1-imidazolidonecarbonylamino)phenylacetamido]-3(3-pyridylmethyl)-3-cephem-4-carboxylic acid trifluoroacetic acid salt], the MIC in assay [1] turned out to be 25 µg/mL; in [2] (setting [11]), 12.5 µg/mL; in assay [3] (Staph. aureus Russell, agar), 12.5 µg/mL; in assay [4] (B. subtilis, agar), 1.25 µg/mL; in assay [5], 0.25 µg/mL; in [6], 25 µg/mL. For the same compound, the MIC in assay [7] turned out to be 25 µg/mL; in assay [8] (β-Haemolytic Strep. CN10, agar) it was 0.12 µg/mL; in assay [9], 50 µg/mL; in assay [10], 0.25 µg/mL.
In the case of `O=C(CSc1ccncc1)N[C@@H]1C(=O)N2C(C(=O)O)=C(Cc3cccnc3)CS[C@H]12` [Example 16, 7β(4-pyridylthioacetamido)-3(3-pyridylmethyl)-3-cephem-4-carboxylic acid di-trifluoroacetic acid salt], the MIC was 25 µg/mL in assay [1]; 5 µg/mL in [2] (setting [11]); 1 µg/mL in [3] (Staph. aureus Russell, agar); under 0.02 µg/mL in [4] (B. subtilis, agar); under 0.02 µg/mL in assay [5]; 25 µg/mL in assay [6]. The MIC in assay [7] was 10 µg/mL; in assay [8] (β-Haemolytic Strep. CN10, agar) it was under 0.02 µg/mL; in [9] it was 100 µg/mL; in assay [10], under 0.02 µg/mL.
For `N[C@@H](C(=O)N[C@@H]1C(=O)N2C(C(=O)O)=C(Cc3ccccn3)CS[C@H]12)c1ccccc1` [Example 7, 7β(Dα-aminophenylacetamido)-3(2-pyridylmethyl)-3-cephem-4-carboxylic acid di-trifluoroacetate], the MIC came out at 25 µg/mL (≈ 58.9 µM) in assay [1]; 12.5 µg/mL (≈ 29.4 µM) in assay [3]; 1.25 µg/mL (≈ 2.94 µM) in assay [4] (B. subtilis, agar); 50 µg/mL (≈ 118 µM) in assay [6]; 12.5 µg/mL (≈ 29.4 µM) in assay [7]; 1.25 µg/mL (≈ 2.94 µM) in [8] (β-Haemolytic Strep. CN10, agar). Also, the MIC in [9] came out at 125 µg/mL (≈ 294 µM); in assay [10], 1.25 µg/mL (≈ 2.94 µM).
Take `O=C(COc1ccccc1)N[C@@H]1C(=O)N2C(C(=O)O)=C(Cc3cccnc3)CS[C@H]12` [Example 9, 7β-phenoxyacetamido-3(3-pyridylmethyl)-3-cephem-4-carboxylic acid trifluoroacetic acid salt]: the MIC in assay [1] was found to be 500 µg/mL; in [2] (setting [11]), 500 µg/mL; in assay [3] (Staph. aureus Russell, agar), 0.12 µg/mL; in assay [4] (B. subtilis, agar) it was 0.25 µg/mL; in [5], 0.12 µg/mL; in assay [6], 500 µg/mL. Besides, the MIC came out at 500 µg/mL in assay [7]; 0.12 µg/mL in [8] (β-Haemolytic Strep. CN10, agar); 125 µg/mL in assay [9]; 0.02 µg/mL in assay [10].
